Target: T1, human mGluR5d (Homo sapiens, UniProt P41594)
T1 construct: expressed in transfected cells; host or cells: GHEK (human embryonic kidney cells expressing glutamate transporter) for the IP3 assay
Assay: Functional assessment of mGluR5 antagonism in cell lines expressing mGluR5d (FLIPR [Ca2+]i mobilization and/or IP3 turnover; not stated which assay gave the values)
Format: cell-based
Settings: assays described herein (FLIPR / IP3), cells expressing human mGluR5d
Source text: (§1) The pharmacological properties of the compounds of the invention can be analyzed using standard assays for functional activity. Examples of glutamate receptor assays are well known in the art as described in for example Aramori et al., Neuron 8:757 (1992), Tanabe et al., Neuron 8:169 (1992), Miller et al., J. Neuroscience 15: 6103 (1995), Balazs, et al., J. Neurochemistry 69:151 (1997). The methodology described in these publications is incorporated herein by reference. Conveniently, the compounds of the invention can be studied by means of an assay that measures the mobilization of intracellular calcium, [Ca^2+]i in cells expressing mGluR5.
Intracellular calcium mobilization was measured by detecting changes in fluorescence of cells loaded with the fluorescent indicator fluo-3. Fluorescent signals were measured using the FLIPR system (Molecular Devices). A two addition experiment was used that could detect compounds that either activate or antagonize the receptor.
For FLIPR analysis, cells expressing human mGluR5d were seeded on collagen coated clear bottom 96-well plates with black sides and analysis of [Ca^2+]i mobilization was done 24 hours after seeding.
FLIPR experiments were done using a laser setting of 0.800 W and a 0.4 second CCD camera shutter speed. Each FLIPR experiment was initiated with 160 μL of buffer present in each well of the cell plate. After each addition of the compound, the fluorescence signal was sampled 50 times at 1 second intervals followed by 3 samples at 5 second intervals. Responses were measured as the peak height of the response within the sample period.
EC50 and IC50 determinations were made from data obtained from 8-point concentration response curves (CRC) performed in duplicate. Agonist CRC were generated by scaling all responses to the maximal response observed for the plate. Antagonist block of the agonist challenge was normalized to the average response of the agonist challenge in 14 control wells on the same plate.
We have validated a secondary functional assay for mGluR5d based on Inositol Phosphate (IP3) turnover. IP3 accumulation is measured as an index of receptor mediated phospholipase C turnover. GHEK cells stably expressing the human mGluR5d receptors were incubated with [3H] myo-inositol overnight, washed three times in HEPES buffered saline and pre-incubated for 10 minutes with 10 mM LiCl. Compounds (agonists) were added and incubated for 30 minutes at 37° C. Antagonist activity was determined by pre-incubating test compounds for 15 minutes, then incubating in the presence of glutamate (80 μM) or DHPG (30 μM) for 30 minutes. Reactions were terminated by the addition of perchloric acid (5%). Samples were collected and neutralized, and inositol phosphates were separated using Gravity-Fed Ion-Exchange Columns.
Functional Assessment of mGluR5 Antagonism in Cell Lines Expressing mGluR5D
as §1, with “The” for “The pharmacological”, “pharmacological” for “functional”, “Conveniently, the compounds of the invention can be studied by means of an assay that measures the mobilization of intracellular calcium, [Ca^2+]i in cells expressing mGluR5.” left out

T1 sequence (P41594 21-942 isoform P41594-3 limits assumed): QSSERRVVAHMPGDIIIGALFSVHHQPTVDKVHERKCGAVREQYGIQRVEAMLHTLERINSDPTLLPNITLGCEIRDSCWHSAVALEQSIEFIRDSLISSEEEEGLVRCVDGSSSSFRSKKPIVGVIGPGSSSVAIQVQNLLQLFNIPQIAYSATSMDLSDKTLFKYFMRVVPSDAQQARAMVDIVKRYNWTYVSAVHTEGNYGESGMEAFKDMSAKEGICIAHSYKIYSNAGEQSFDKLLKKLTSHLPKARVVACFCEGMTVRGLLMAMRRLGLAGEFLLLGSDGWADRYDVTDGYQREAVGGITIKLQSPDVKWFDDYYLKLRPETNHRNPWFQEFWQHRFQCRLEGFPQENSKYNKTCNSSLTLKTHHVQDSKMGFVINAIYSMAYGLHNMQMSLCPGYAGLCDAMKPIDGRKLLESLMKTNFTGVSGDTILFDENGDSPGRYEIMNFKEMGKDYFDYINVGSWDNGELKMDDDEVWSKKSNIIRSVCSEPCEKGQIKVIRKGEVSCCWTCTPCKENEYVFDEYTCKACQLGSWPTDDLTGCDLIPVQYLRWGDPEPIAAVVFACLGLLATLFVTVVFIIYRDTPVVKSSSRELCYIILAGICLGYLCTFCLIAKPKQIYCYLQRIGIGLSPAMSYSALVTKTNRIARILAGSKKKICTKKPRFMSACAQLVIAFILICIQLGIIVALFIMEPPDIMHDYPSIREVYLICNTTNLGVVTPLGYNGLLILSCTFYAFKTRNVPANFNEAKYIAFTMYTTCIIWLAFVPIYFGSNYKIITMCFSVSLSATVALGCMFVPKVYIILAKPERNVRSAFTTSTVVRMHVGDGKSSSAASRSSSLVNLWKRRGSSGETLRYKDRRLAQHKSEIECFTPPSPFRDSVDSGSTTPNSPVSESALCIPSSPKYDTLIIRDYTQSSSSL

| SMILES | IC50 |
| --- | --- |
| CCOC(=O)N1CCN(C(=O)/C=C/c2cccc(Cl)c2)CC1 [Example 11.4, ethyl 4-[(2E)-3-(3-chloro-phenyl)prop-2-enoyl]piperazine-1-carboxylate] | 1110 nM |
| O=C(/C=C/c1cccc(Cl)c1)N1CCN(c2ncccc2[N+](=O)[O-])CC1 [Example 11.6, 1-[(2E)-3-(3-chlorophenyl)prop-2-enoyl]-4-(3-nitro-pyridin-2-yl)piperazine] | 10 nM |
| C[C@@H]1CN(c2ncccc2C#N)CCN1C(=O)/C=C/c1cccc(Br)c1 [Example 11.22, 2-{(3R)-4-[(2E)-3-(3-bromo-phenyl)prop-2-enoyl]-3-methylpiperazin-1-yl}nicotinonitrile] | 33 nM |
| C[C@@H]1CN(c2ncc(F)cc2C#N)CCN1C(=O)/C=C/c1cccc(OC(F)F)c1 [Example 11.28, 2-((3R)-4-{(2E)-3-[3-(difluoromethoxy)phenyl]prop-2-enoyl}-3-methylpiperazin-1-yl)-5-fluoronicotinonitrile] | 293 nM |
| COCC1CN(c2nccnc2C#N)CCN1C(=O)/C=C/c1cccc(Cl)c1 (centres unmarked) [Example 29.1, 3-[4-[(2E)-3-(3-chlorophenyl)prop-2-enoyl]-3-(methoxymethyl)piperazin-1-yl]pyrazine-2-carbonitrile] | 384 nM |

From patent US20070049578A1, “Cinnamamide compounds as metabotropic glutamate receptor antagonists” (AstraZeneca AB, priority 2005, published 2007)
